Reference: patent US9340590B2 (priority 2011, dated 2016)
Read-outs that look alike come from different tables or passages of the source. Positions of bridges follow the written chain, without caps; N, C: chain ends. Non-standard residues stand in square brackets, D forms with d. Residues, ends and D or L forms follow the SMILES beside them. 1Nal = N[C@@H](Cc1cccc2ccccc12)C(=O)O

Assays:
[1] = target: hNav1.5 (Homo sapiens, UniProt Q14524); test: cell-based
[2] = target: hNav1.3 (Homo sapiens, UniProt Q9NY46); test: cell-based; details: IonWorks Quattro, read-out: IWQ Use Nav1.3
Sequence of hNav1.3 (Q9NY46 whole entry, looked up): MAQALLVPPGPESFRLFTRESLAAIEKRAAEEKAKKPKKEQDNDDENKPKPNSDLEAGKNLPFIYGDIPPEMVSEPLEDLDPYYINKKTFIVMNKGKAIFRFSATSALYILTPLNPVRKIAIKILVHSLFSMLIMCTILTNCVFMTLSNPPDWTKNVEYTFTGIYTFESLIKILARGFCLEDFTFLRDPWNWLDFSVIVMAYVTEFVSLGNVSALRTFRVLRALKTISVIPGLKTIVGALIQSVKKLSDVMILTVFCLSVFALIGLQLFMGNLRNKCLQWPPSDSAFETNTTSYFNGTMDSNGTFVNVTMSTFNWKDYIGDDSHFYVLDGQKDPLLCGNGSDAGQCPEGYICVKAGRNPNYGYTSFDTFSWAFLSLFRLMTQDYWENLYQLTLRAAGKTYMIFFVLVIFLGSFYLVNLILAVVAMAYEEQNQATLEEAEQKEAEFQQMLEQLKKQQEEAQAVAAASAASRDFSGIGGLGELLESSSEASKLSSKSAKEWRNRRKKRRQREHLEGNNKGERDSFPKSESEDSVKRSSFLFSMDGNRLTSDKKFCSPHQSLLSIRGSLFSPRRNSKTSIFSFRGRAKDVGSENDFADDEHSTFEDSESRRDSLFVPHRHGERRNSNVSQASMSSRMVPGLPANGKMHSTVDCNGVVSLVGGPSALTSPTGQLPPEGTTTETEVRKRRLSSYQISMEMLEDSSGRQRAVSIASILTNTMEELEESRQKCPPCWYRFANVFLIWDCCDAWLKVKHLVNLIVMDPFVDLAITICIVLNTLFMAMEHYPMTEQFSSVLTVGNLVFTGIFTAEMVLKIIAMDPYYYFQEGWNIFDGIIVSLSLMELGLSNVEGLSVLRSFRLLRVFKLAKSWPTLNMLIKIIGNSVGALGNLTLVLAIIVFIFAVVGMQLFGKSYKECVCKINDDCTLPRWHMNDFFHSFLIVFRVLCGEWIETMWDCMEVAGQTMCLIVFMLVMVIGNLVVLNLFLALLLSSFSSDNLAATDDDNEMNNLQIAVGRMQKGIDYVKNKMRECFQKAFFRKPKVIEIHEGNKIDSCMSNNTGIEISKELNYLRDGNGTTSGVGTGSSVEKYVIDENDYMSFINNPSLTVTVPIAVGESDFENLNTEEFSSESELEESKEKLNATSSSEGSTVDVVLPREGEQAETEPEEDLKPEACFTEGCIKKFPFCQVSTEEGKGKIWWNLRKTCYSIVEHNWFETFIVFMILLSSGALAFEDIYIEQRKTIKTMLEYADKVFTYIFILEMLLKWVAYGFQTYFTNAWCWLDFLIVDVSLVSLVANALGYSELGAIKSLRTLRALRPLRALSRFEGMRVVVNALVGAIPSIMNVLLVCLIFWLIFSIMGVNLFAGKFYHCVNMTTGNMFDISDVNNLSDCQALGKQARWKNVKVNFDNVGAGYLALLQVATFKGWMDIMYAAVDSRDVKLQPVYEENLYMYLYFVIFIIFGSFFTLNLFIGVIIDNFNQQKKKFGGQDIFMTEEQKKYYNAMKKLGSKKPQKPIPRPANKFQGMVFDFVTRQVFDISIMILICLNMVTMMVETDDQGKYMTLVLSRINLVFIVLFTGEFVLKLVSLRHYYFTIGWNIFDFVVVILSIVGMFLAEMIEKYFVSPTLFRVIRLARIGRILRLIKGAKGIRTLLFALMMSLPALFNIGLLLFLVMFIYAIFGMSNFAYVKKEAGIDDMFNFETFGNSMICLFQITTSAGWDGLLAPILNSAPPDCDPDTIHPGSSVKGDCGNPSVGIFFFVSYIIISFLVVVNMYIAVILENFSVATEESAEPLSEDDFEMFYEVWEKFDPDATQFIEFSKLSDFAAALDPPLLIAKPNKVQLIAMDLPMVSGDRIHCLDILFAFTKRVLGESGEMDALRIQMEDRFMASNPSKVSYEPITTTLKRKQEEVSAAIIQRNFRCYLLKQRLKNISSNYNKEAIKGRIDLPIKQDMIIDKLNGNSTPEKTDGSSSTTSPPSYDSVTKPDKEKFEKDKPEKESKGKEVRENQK

[3] = IonWorks Quattro, Use, read-out: IWQ Use Nav1.5

Sequence of hNav1.5 (Q14524 whole entry, looked up): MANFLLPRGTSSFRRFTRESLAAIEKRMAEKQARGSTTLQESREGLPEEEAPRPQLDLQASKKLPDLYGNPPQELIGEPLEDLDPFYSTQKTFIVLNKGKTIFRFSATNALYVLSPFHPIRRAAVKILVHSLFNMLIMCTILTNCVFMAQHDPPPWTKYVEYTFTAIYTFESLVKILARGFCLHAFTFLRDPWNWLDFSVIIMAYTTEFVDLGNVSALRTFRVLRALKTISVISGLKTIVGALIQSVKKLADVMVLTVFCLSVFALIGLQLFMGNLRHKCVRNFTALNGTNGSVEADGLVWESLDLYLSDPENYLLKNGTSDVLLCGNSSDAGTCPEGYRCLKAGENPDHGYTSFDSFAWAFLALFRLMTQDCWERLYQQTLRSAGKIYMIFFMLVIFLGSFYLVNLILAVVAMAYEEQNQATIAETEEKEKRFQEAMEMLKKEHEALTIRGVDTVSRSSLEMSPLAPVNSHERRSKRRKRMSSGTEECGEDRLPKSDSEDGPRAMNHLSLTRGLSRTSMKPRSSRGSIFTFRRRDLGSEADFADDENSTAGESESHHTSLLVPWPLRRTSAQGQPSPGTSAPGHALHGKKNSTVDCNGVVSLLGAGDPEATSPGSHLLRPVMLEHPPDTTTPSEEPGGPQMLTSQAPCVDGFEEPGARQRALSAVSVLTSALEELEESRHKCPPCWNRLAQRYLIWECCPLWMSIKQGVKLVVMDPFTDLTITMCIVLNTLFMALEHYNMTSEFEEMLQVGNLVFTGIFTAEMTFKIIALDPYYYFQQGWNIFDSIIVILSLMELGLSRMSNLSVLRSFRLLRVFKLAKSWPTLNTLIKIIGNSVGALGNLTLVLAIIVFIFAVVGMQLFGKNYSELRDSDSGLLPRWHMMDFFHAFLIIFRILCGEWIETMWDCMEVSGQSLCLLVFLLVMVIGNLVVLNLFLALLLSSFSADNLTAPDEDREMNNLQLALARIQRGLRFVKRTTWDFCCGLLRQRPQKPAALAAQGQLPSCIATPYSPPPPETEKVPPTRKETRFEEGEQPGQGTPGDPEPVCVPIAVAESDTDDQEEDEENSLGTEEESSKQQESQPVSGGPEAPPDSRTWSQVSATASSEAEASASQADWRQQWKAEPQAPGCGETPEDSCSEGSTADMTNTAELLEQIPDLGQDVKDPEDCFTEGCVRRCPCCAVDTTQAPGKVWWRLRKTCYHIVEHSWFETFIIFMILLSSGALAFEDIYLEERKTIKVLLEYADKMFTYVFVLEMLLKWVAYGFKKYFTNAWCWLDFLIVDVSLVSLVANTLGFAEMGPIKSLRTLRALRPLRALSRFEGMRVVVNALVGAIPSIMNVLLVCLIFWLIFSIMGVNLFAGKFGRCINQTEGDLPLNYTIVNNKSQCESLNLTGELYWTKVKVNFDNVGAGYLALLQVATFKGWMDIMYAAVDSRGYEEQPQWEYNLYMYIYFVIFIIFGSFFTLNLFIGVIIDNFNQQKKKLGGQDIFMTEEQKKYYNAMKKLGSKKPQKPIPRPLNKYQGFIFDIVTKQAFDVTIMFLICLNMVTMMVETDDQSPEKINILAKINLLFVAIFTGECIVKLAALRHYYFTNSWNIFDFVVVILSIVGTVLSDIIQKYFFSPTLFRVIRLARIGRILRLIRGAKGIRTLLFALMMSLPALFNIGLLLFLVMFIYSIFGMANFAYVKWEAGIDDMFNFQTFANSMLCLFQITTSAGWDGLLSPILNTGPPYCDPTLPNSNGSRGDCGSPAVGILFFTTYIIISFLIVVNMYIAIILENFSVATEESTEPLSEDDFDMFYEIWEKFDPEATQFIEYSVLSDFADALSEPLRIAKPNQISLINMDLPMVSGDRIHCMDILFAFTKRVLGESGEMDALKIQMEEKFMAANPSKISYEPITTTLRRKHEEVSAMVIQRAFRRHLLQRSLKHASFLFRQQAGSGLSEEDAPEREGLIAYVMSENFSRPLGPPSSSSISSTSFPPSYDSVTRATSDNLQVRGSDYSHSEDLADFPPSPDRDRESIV

Structure (SMILES) | IC50 [1, 3] [µM] | IC50 ([2]; Use) [nM] | further results
CC[C@H](C)[C@@H]1NC(=O)[C@@H]2CSSC[C@@H]3NC(=O)[C@H](C(C)C)NC(=O)[C@H](CC(C)C)NC(=O)[C@H](CC(N)=O)NC(=O)[C@H](CCCNC(=N)N)NC(=O)[C@H](CCCNC(=N)N)NC(=O)[C@H](CSSC[C@H](NC(=O)[C@@H](N)CC(=O)O)C(=O)N[C@@H](CC(C)C)C(=O)NCC(=O)N[C@@H](Cc4ccccc4)C(=O)N[C@@H](CCSC)C(=O)N[C@@H](CCCNC(=N)N)C(=O)N[C@@H](CCCCN)C(=O)N2)NC(=O)[C@H](CSSC[C@@H](C(=O)N[C@@H](CCCCN)C(=O)N[C@@H](Cc2ccc(O)cc2)C(=O)N[C@H](C(=O)N[C@@H](Cc2ccccc2)C(N)=O)C(C)C)NC(=O)[C@H](Cc2c[nH]c4ccccc24)NC(=O)[C@H](CCCCN)NC(=O)[C@H](Cc2cnc[nH]2)NC(=O)[C@H]([C@@H](C)O)NC(=O)[C@H](CCCNC(=N)N)NC(=O)[C@H](CO)NC3=O)NC(=O)[C@H](CCCCN)NC(=O)[C@H](CC(=O)O)NC(=O)[C@H](CC(N)=O)NC(=O)[C@H](CC(=O)O)NC(=O)[C@@H]2CCCN2C1=O [compound 157] (H-DCLGFMRKCIPDNDKCCRRNLVCSRTHKWCKYVF-NH2; disulfide 2-17, 9-23, 16-30) | 6.16 | 60 | –
CSCC[C@@H]1NC(=O)[C@H](Cc2ccccc2)NC(=O)CNC(=O)[C@H](CC(C)C)NC(=O)[C@@H](NC(=O)[C@@H](N)CC(=O)O)CSSC[C@@H]2NC(=O)[C@@H]3CSSC[C@@H](C(=O)N[C@@H](CCCCN)C(=O)N[C@@H](Cc4ccc(O)cc4)C(=O)N[C@H](C(=O)N[C@@H](Cc4ccccc4)C(N)=O)C(C)C)NC(=O)[C@H](Cc4c[nH]c5ccccc45)NC(=O)[C@H](CCCCN)NC(=O)[C@H](Cc4cnc[nH]4)NC(=O)[C@H]([C@@H](C)O)NC(=O)[C@H](CCCNC(=N)N)NC(=O)[C@H](CO)NC(=O)[C@H](CSSC[C@H](NC(=O)[C@H](CCCCN)NC(=O)[C@H](CCCNC(=N)N)NC1=O)C(=O)N[C@@H](Cc1ccc(O)cc1)C(=O)N1CCC[C@H]1C(=O)N[C@@H](CC(=O)O)C(=O)N[C@@H](CC(N)=O)C(=O)N[C@@H](CC(=O)O)C(=O)N[C@@H](CCCCN)C(=O)N3)NC(=O)[C@H](C(C)C)NC(=O)[C@H](CC(C)C)NC(=O)[C@H](CC(N)=O)NC(=O)[C@@H]1CCCN1C(=O)[C@H](CCCNC(=N)N)NC2=O [compound 299] (H-DCLGFMRKCYPDNDKCCRPNLVCSRTHKWCKYVF-NH2; disulfide 2-17, 9-23, 16-30) | 5.41 | 70 | –
CC[C@H](C)[C@@H]1NC(=O)[C@@H]2CSSC[C@@H]3NC(=O)[C@H](C)NC(=O)[C@H](CC(C)C)NC(=O)[C@H](CC(N)=O)NC(=O)[C@@H]4CCCN4C(=O)[C@H](CCCNC(=N)N)NC(=O)[C@H](CSSC[C@H](NC(=O)[C@@H](N)CC(=O)O)C(=O)N[C@@H](CC(C)C)C(=O)NCC(=O)N[C@@H](Cc4ccccc4)C(=O)N[C@@H](CCSC)C(=O)N[C@@H](CCCNC(=N)N)C(=O)N[C@@H](CCCCN)C(=O)N2)NC(=O)[C@H](CSSC[C@@H](C(=O)N[C@@H](CCCCN)C(=O)N[C@@H](Cc2ccc(O)cc2)C(=O)N[C@H](C(=O)N[C@@H](Cc2ccccc2)C(N)=O)C(C)C)NC(=O)[C@H](Cc2c[nH]c4ccccc24)NC(=O)[C@H](CCCCN)NC(=O)[C@H](Cc2cnc[nH]2)NC(=O)[C@H]([C@@H](C)O)NC(=O)[C@H](CCCNC(=N)N)NC(=O)[C@H](CO)NC3=O)NC(=O)[C@H](CCCCN)NC(=O)[C@H](CC(=O)O)NC(=O)[C@H](CC(N)=O)NC(=O)[C@H](CC(=O)O)NC(=O)[C@@H]2CCCN2C1=O [compound 8] (H-DCLGFMRKCIPDNDKCCRPNLACSRTHKWCKYVF-NH2; disulfide 2-17, 9-23, 16-30) | 20.4 | 320 | –
CSCC[C@@H]1NC(=O)[C@H](Cc2ccccc2)NC(=O)CNC(=O)[C@H](CC(C)C)NC(=O)[C@@H](NC(=O)[C@@H](N)CC(=O)O)CSSC[C@@H]2NC(=O)[C@@H]3CSSC[C@@H](C(=O)N[C@@H](CCCCN)C(=O)N[C@@H](Cc4ccc(O)cc4)C(=O)N[C@H](C(=O)N[C@@H](Cc4ccccc4)C(N)=O)C(C)C)NC(=O)[C@H](Cc4c[nH]c5ccccc45)NC(=O)[C@H](CCCCN)NC(=O)[C@H](Cc4cnc[nH]4)NC(=O)[C@H]([C@@H](C)O)NC(=O)[C@H](CCCNC(=N)N)NC(=O)[C@H](CO)NC(=O)[C@H](CSSC[C@H](NC(=O)[C@H](CCCCN)NC(=O)[C@H](CCCNC(=N)N)NC1=O)C(=O)N[C@@H](CCC(=O)O)C(=O)N1CCC[C@H]1C(=O)N[C@@H](CC(=O)O)C(=O)N[C@@H](CC(N)=O)C(=O)N[C@@H](CC(=O)O)C(=O)N[C@@H](CCCCN)C(=O)N3)NC(=O)[C@H](C(C)C)NC(=O)[C@H](CC(C)C)NC(=O)[C@H](CC(N)=O)NC(=O)[C@@H]1CCCN1C(=O)[C@H](CCCNC(=N)N)NC2=O [SEQ ID NO: 146, [Glu10]GpTx-1] (H-DCLGFMRKCEPDNDKCCRPNLVCSRTHKWCKYVF-NH2; disulfide 2-17, 9-23, 16-30) | 9.55 | 150 | –
CC[C@H](C)[C@@H]1NC(=O)[C@@H]2CSSC[C@@H]3NC(=O)[C@H](C(C)C)NC(=O)[C@H](CC(C)C)NC(=O)[C@H](CC(N)=O)NC(=O)[C@@H]4CCCN4C(=O)[C@H](CCCNC(=N)N)NC(=O)[C@H](CSSC[C@H](NC(=O)[C@@H](N)CC(=O)O)C(=O)N[C@@H](CC(C)C)C(=O)NCC(=O)N[C@@H](Cc4ccccc4)C(=O)N[C@@H](CCSC)C(=O)N[C@@H](CCCNC(=N)N)C(=O)N[C@@H](CCCCN)C(=O)N2)NC(=O)[C@H](CSSC[C@@H](C(=O)N[C@@H](CCCCN)C(=O)N[C@@H](Cc2ccc(O)cc2)C(=O)N[C@H](C(=O)N[C@@H](Cc2ccccc2)C(N)=O)C(C)C)NC(=O)[C@H](Cc2c[nH]c4ccccc24)NC(=O)[C@H](CCCCN)NC(=O)[C@H](Cc2cnc[nH]2)NC(=O)[C@H]([C@@H](C)O)NC(=O)[C@H](CCCNC(=N)N)NC(=O)[C@H](CO)NC3=O)NC(=O)[C@H](CCCCN)NC(=O)[C@H](CC(=O)O)NC(=O)[C@H](CCCCN)NC(=O)[C@H](CC(=O)O)NC(=O)[C@@H]2CCCN2C1=O [compound 48] (H-DCLGFMRKCIPDKDKCCRPNLVCSRTHKWCKYVF-NH2; disulfide 2-17, 9-23, 16-30) | 9.72 | 130 | –
CC[C@H](C)[C@@H]1NC(=O)[C@@H]2CSSC[C@@H]3NC(=O)[C@H](C(C)C)NC(=O)[C@H](CC(C)C)NC(=O)[C@H](CC(N)=O)NC(=O)[C@@H]4CCCN4C(=O)[C@H](CCCNC(=N)N)NC(=O)[C@H](CSSC[C@H](NC(=O)[C@@H](N)CC(=O)O)C(=O)N[C@@H](CC(C)C)C(=O)NCC(=O)N[C@@H](Cc4ccccc4)C(=O)N[C@@H](CCSC)C(=O)N[C@@H](CCCNC(=N)N)C(=O)N[C@@H](CCCCN)C(=O)N2)NC(=O)[C@H](CSSC[C@@H](C(=O)N[C@@H](CCCCN)C(=O)N[C@@H](Cc2ccc(O)cc2)C(N)=O)NC(=O)[C@H](Cc2c[nH]c4ccccc24)NC(=O)[C@H](CCCCN)NC(=O)[C@H](Cc2cnc[nH]2)NC(=O)[C@H]([C@@H](C)O)NC(=O)[C@H](CCCNC(=N)N)NC(=O)[C@H](CO)NC3=O)NC(=O)[C@H](CCCCN)NC(=O)[C@H](CC(=O)O)NC(=O)[C@H](CC(N)=O)NC(=O)[C@H](CC(=O)O)NC(=O)[C@@H]2CCCN2C1=O [compound 416] (H-DCLGFMRKCIPDNDKCCRPNLVCSRTHKWCKY-NH2; disulfide 2-17, 9-23, 16-30) | – | – | IC50 ([1]; IonWorks Quattro, use-dependent, […], read-out: IWQ Use Nav1.5): 8.64 µM; IC50 ([2]; use-dependent, […]): 880 nM
CC[C@H](C)[C@@H]1NC(=O)[C@@H]2CSSC[C@@H]3NC(=O)[C@H](C(C)C)NC(=O)[C@H](CC(C)C)NC(=O)[C@H](CC(N)=O)NC(=O)[C@@H]4CCCN4C(=O)[C@H](CCCNC(=N)N)NC(=O)[C@H](CSSC[C@H](NC(=O)[C@@H](N)CC(=O)O)C(=O)N[C@@H](CC(C)C)C(=O)NCC(=O)N[C@@H](Cc4ccccc4)C(=O)N[C@@H](CCSC)C(=O)N[C@@H](CCCNC(=N)N)C(=O)N[C@@H](CCCCN)C(=O)N2)NC(=O)[C@H](CSSC[C@@H](C(=O)N[C@@H](CCCCN)C(=O)N[C@@H](Cc2cccc4ccccc24)C(=O)N[C@H](C(=O)N[C@@H](Cc2ccccc2)C(N)=O)C(C)C)NC(=O)[C@H](Cc2c[nH]c4ccccc24)NC(=O)[C@H](CCCCN)NC(=O)[C@H](Cc2cnc[nH]2)NC(=O)[C@H]([C@@H](C)O)NC(=O)[C@H](CCCNC(=N)N)NC(=O)[C@H](CO)NC3=O)NC(=O)[C@H](CCCCN)NC(=O)[C@H](CC(=O)O)NC(=O)[C@H](CC(N)=O)NC(=O)[C@H](CC(=O)O)NC(=O)[C@@H]2CCCN2C1=O [compound 167] (H-DCLGFMRKCIPDNDKCCRPNLVCSRTHKWCK[1Nal]VF-NH2; disulfide 2-17, 9-23, 16-30) | – | – | IC50 ([1]; IWQ Use Nav1.5 (μM)): 3.96 µM; IC50 ([2]; Table 25, use, […]): 1 nM
CC[C@H](C)[C@@H]1NC(=O)[C@@H]2CSSC[C@@H]3NC(=O)[C@H](C(C)C)NC(=O)[C@H](CC(C)C)NC(=O)[C@H](CC(N)=O)NC(=O)[C@@H]4CCCN4C(=O)[C@H](CCCNC(=N)N)NC(=O)[C@H](CSSC[C@H](NC(=O)[C@@H](N)CC(=O)O)C(=O)N[C@@H](CC(C)C)C(=O)NCC(=O)N[C@@H](Cc4ccccc4)C(=O)N[C@@H](CCSC)C(=O)N[C@@H](CCCNC(=N)N)C(=O)N[C@@H](CCCCN)C(=O)N2)NC(=O)[C@H](CSSC[C@@H](C(=O)N[C@@H](CCCCN)C(=O)N[C@@H](Cc2ccc(O)cc2)C(=O)N[C@H](C(=O)N[C@@H](Cc2ccccc2)C(N)=O)C(C)C)NC(=O)[C@H](Cc2c[nH]c4ccccc24)NC(=O)[C@H](CCCCN)NC(=O)[C@H](Cc2cnc[nH]2)NC(=O)[C@H]([C@@H](C)O)NC(=O)[C@H](CCCNC(=N)N)NC(=O)[C@H](CO)NC3=O)NC(=O)[C@H](CCCCN)NC(=O)[C@H](CC(=O)O)NC(=O)[C@H](CC(N)=O)NC(=O)[C@H](C)NC(=O)[C@@H]2CCCN2C1=O [compound 4] (H-DCLGFMRKCIPANDKCCRPNLVCSRTHKWCKYVF-NH2; disulfide 2-17, 9-23, 16-30) | – | 130 | IC50 ([1]; IWQ Use Nav1.5 (μM)): 8.05 µM
